Source: the kinase profiling compilation of Christmann-Franck et al. (2016)

Tests used:
Experiment in all cases: radiometric filter-binding kinase assay, Kinase HotSpot
Settings in all cases: compound 0.5 µM; ATP 10 µM
MAPK12 (human) = MAPK12 (human) (UniProt P53778)
CAMK1G (human) = CAMK1G (human) (UniProt Q96NX5)
BRSK1 (human) = BRSK1 (human) (UniProt Q8TDC3)
RPS6KA4 KD2 (human) = RPS6KA4 KD2 (human) (UniProt O75676)
CDK9 CCNT1 (human) = CDK9 CCNT1 (human) (UniProt P50750+O60563)
SGK2 (human) = SGK2 (human) (UniProt Q9HBY8)
AKT3 (human) = AKT3 (human) (UniProt Q9Y243)
EPHA5 (human) = EPHA5 (human) (UniProt P54756)
PDGFRB (human) = PDGFRB (human) (UniProt P09619)
BLK (human) = BLK (human) (UniProt P51451)
BLK (human), sequence (P51451 whole entry, looked up): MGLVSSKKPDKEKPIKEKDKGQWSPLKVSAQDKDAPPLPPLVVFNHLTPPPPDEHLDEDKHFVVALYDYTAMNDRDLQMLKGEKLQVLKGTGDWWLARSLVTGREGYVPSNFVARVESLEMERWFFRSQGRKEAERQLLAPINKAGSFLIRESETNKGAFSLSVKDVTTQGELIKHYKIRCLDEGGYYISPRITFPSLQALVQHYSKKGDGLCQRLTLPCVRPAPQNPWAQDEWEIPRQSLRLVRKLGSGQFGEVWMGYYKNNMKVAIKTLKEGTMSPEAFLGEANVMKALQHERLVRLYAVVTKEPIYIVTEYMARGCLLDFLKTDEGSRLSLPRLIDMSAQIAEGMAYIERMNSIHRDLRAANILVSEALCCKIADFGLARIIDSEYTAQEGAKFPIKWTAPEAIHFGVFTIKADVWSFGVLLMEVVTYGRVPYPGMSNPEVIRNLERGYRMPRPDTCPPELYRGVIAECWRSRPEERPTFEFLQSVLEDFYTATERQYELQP

SRPK3 (human) = SRPK3 (human) (UniProt Q9UPE1)
RPS6KA6 KD1 KD2 (human) = RPS6KA6 KD1 KD2 (human) (UniProt Q9UK32)
RPS6KA6 KD1 KD2 (human), sequence (Q9UK32 whole entry, looked up): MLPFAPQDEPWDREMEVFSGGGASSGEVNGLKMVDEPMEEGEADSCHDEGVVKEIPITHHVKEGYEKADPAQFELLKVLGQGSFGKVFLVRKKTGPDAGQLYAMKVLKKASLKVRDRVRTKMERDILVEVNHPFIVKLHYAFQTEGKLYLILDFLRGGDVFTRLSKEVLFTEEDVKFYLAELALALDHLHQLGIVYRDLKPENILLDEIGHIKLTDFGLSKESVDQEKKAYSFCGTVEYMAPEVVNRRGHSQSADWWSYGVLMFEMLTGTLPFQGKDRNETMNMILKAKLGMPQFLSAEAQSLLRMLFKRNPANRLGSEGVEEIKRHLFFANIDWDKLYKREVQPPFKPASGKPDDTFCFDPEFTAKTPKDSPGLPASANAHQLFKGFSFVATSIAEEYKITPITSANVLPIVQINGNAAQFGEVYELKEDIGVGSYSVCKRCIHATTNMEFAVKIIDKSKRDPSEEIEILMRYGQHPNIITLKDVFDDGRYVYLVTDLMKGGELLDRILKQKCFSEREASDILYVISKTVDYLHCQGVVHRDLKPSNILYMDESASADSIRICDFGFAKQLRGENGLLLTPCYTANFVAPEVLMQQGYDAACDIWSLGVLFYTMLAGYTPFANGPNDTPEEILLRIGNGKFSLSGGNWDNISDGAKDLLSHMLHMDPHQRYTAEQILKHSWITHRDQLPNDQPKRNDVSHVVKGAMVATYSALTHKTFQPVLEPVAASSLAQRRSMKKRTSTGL

DYRK4 (human) = DYRK4 (human) (UniProt Q9NR20)
NEK1 (human) = NEK1 (human) (UniProt Q96PY6)
ABL1 (human) = ABL1 (human) (UniProt P00519)
GRK5 (human) = GRK5 (human) (UniProt P34947)
CDK6 CCND1 (human) = CDK6 CCND1 (human) (UniProt Q00534+P24385)
RPS6KA1 KD1 KD2 (human) = RPS6KA1 KD1 KD2 (human) (UniProt Q15418)
SRPK1 (human) = SRPK1 (human) (UniProt Q96SB4)
DYRK1B (human) = DYRK1B (human) (UniProt Q9Y463)
STK3 (human) = STK3 (human) (UniProt Q13188)
CSNK2A1 (human) = CSNK2A1 (human) (UniProt P68400)
CDK1 CCNB1 (human) = CDK1 CCNB1 (human) (UniProt P06493+P14635)
CDK1 CCNB1 (human), sequence (P06493 whole entry, looked up): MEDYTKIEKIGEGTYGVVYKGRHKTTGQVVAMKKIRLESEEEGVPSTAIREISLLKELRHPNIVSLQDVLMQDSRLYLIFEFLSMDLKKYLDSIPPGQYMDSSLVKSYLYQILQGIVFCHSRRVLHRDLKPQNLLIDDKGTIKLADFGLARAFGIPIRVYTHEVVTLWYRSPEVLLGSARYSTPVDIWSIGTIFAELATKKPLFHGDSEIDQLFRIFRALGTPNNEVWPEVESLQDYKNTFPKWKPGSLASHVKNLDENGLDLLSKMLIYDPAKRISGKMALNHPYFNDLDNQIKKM
CDK1 CCNB1 (human), sequence (P14635 whole entry, looked up): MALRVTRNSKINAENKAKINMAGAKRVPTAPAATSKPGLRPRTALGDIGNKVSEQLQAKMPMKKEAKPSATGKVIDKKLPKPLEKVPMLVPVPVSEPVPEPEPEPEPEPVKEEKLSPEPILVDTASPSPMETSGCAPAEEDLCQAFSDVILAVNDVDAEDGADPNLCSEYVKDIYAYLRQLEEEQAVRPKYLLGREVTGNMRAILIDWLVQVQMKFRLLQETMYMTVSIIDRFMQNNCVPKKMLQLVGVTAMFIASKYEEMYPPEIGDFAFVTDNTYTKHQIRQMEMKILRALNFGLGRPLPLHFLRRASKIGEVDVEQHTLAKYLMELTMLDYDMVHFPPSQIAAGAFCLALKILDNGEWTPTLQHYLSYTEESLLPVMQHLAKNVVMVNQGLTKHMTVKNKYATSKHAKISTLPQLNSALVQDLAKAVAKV

CDK4 CCND3 (human) = CDK4 CCND3 (human) (UniProt P30281+P11802)
ADRBK2 (human) = ADRBK2 (human) (UniProt P35626)
EPHA7 (human) = EPHA7 (human) (UniProt Q15375)
DAPK1 (human) = DAPK1 (human) (UniProt P53355)
NEK4 (human) = NEK4 (human) (UniProt P51957)
NEK6 (human) = NEK6 (human) (UniProt Q9HC98)
NEK6 (human), sequence (Q9HC98 whole entry, looked up): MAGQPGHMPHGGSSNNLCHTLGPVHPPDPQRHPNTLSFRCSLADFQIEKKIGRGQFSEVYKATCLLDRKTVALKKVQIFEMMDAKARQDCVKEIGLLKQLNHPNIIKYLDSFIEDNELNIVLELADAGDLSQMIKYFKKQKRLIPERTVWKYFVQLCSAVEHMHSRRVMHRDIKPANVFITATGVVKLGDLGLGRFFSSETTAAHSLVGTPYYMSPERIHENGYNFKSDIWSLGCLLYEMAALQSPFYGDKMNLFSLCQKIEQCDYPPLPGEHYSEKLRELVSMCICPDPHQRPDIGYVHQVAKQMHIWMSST

MAPKAPK5 (human) = MAPKAPK5 (human) (UniProt Q8IW41)
MAPKAPK5 (human), sequence (Q8IW41 whole entry, looked up): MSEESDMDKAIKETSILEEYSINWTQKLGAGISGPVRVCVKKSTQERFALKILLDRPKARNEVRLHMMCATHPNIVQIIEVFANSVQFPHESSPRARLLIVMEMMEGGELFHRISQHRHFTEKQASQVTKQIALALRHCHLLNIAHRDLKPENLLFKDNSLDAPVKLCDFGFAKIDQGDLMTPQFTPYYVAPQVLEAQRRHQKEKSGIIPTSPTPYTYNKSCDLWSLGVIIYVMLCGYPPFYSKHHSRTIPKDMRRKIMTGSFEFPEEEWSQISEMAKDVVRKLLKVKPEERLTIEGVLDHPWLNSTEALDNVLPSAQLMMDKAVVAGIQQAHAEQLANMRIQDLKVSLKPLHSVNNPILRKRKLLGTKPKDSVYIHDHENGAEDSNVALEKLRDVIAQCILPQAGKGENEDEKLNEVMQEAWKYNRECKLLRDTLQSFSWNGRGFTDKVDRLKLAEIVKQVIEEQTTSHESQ

MAPK1 (human) = MAPK1 (human) (UniProt P28482)
TYRO3 (human) = TYRO3 (human) (UniProt Q06418)
TYRO3 (human), sequence (Q06418 whole entry, looked up): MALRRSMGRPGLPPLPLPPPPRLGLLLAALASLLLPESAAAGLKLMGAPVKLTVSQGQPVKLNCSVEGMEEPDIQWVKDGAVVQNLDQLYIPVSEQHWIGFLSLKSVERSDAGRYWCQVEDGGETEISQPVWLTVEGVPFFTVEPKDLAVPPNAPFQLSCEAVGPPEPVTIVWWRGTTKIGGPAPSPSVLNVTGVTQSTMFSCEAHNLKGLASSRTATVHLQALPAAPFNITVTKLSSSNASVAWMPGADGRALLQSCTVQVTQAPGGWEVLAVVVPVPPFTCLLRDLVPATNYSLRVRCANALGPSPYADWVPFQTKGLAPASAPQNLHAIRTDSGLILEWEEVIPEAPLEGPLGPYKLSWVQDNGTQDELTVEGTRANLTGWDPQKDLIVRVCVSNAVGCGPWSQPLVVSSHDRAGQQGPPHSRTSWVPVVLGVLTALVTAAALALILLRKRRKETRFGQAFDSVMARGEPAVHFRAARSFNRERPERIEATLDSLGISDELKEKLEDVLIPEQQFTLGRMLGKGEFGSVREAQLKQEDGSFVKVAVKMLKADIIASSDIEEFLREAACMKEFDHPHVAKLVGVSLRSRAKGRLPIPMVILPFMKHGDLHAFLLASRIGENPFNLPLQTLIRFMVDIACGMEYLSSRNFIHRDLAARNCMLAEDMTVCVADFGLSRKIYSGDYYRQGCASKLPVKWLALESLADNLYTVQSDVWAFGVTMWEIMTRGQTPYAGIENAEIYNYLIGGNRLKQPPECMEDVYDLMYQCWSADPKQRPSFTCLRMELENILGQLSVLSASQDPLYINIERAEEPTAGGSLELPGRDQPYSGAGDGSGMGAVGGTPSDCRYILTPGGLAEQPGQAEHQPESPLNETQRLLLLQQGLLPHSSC

IKBKB (human) = IKBKB (human) (UniProt O14920)
ACVR1 (human) = ACVR1 (human) (UniProt Q04771)
ACVR1 (human), sequence (Q04771 whole entry, looked up): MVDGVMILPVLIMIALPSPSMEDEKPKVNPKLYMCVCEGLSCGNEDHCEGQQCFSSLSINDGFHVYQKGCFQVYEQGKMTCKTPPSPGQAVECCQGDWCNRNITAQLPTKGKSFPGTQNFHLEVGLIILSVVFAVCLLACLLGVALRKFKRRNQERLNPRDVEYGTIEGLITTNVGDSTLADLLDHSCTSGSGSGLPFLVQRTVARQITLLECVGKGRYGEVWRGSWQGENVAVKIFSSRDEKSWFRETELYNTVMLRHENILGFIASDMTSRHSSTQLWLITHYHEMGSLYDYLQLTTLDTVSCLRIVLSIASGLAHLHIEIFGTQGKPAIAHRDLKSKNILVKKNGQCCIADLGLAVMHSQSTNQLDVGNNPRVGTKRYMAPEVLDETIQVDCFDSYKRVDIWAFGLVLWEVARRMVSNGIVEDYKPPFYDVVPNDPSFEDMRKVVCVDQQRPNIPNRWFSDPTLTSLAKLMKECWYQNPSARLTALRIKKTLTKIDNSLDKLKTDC

DCLK2 (human) = DCLK2 (human) (UniProt Q8N568)
TGFBR1 (human) = TGFBR1 (human) (UniProt P36897)
CSNK1G1 (human) = CSNK1G1 (human) (UniProt Q9HCP0)
PRKCH (human) = PRKCH (human) (UniProt P24723)
SRMS (human) = SRMS (human) (UniProt Q9H3Y6)
TXK (human) = TXK (human) (UniProt P42681)
FGR (human) = FGR (human) (UniProt P09769)

RPS6KA4 KD2 (human), sequence (O75676 whole entry, looked up): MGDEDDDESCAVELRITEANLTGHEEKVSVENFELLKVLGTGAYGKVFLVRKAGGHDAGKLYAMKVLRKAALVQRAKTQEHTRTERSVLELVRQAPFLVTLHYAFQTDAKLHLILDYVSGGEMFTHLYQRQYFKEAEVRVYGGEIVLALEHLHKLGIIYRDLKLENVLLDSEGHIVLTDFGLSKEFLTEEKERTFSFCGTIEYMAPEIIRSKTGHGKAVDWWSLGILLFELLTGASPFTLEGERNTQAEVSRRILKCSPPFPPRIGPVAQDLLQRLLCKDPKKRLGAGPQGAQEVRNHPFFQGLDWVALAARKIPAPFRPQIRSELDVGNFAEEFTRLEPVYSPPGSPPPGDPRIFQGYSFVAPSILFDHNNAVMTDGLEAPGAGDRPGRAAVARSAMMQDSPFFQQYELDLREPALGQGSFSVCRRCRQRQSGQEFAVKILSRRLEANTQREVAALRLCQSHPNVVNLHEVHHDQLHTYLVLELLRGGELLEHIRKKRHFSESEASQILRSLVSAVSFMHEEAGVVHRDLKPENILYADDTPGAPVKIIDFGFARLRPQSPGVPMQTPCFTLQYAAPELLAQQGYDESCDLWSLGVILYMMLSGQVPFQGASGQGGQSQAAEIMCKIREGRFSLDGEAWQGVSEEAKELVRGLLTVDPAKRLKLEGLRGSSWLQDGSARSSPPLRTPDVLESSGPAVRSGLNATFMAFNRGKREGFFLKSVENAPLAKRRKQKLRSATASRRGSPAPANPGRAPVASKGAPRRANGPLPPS

Structure (SMILES): CN(C)C[C@H]1CCn2c(c(C3=C(c4cn(C)c5ccccc45)C(=O)NC3=O)c3ccccc32)C1
- residual activity (MAPK12 (human)): 102%
- residual activity (CAMK1G (human)): 95.8%
- residual activity (BRSK1 (human)): 101%
- residual activity (RPS6KA4 KD2 (human)): 33.3%
- residual activity (CDK9 CCNT1 (human)): 39.6%
- residual activity (SGK2 (human)): 71.7%
- residual activity (AKT3 (human)): 56.3%
- residual activity (EPHA5 (human)): 95.1%
- residual activity (PDGFRB (human)): 102%
- residual activity (BLK (human)): 103%
- residual activity (SRPK3 (human)): 100%
- residual activity (RPS6KA6 KD1 KD2 (human)): 2.94%
- residual activity (DYRK4 (human)): 98.9%
- residual activity (NEK1 (human)): 105%
- residual activity (ABL1 (human)): 98%
- residual activity (GRK5 (human)): 56.2%
- residual activity (CDK6 CCND1 (human)): 70.5%
- residual activity (RPS6KA1 KD1 KD2 (human)): 5.9%
- residual activity (SRPK1 (human)): 103%
- residual activity (DYRK1B (human)): 92.2%
- residual activity (STK3 (human)): 102%
- residual activity (CSNK2A1 (human)): 98.9%
- residual activity (CDK1 CCNB1 (human)): 53.7%
- residual activity (CDK4 CCND3 (human)): 99.7%
- residual activity (ADRBK2 (human)): 102%
- residual activity (EPHA7 (human)): 96.9%
- residual activity (DAPK1 (human)): 94.1%
- residual activity (NEK4 (human)): 96.7%
- residual activity (NEK6 (human)): 94.6%
- residual activity (MAPKAPK5 (human)): 95.4%
- residual activity (MAPK1 (human)): 101%
- residual activity (TYRO3 (human)): 99.3%
- residual activity (IKBKB (human)): 105%
- residual activity (ACVR1 (human)): 93.3%
- residual activity (DCLK2 (human)): 97.8%
- residual activity (TGFBR1 (human)): 99.8%
- residual activity (CSNK1G1 (human)): 97%
- residual activity (PRKCH (human)): 7.84%
- residual activity (SRMS (human)): 109%
- residual activity (TXK (human)): 103%
- residual activity (FGR (human)): 97.2%

Structure (SMILES): O=C(O)/C=C/c1cc(Br)c(Br)c(Br)c1Br
- residual activity (MAPK12 (human)): 103%
- residual activity (CAMK1G (human)): 94.1%
- residual activity (BRSK1 (human)): 80.5%
- residual activity (RPS6KA4 KD2 (human)): 103%
- residual activity (CDK9 CCNT1 (human)): 58.9%
- residual activity (SGK2 (human)): 59.7%
- residual activity (AKT3 (human)): 92.7%
- residual activity (EPHA5 (human)): 88.7%
- residual activity (PDGFRB (human)): 96%
- residual activity (BLK (human)): 95.1%
- residual activity (SRPK3 (human)): 66.9%
- residual activity (RPS6KA6 KD1 KD2 (human)): 86.9%
- residual activity (DYRK4 (human)): 96.4%
- residual activity (NEK1 (human)): 85.4%
- residual activity (ABL1 (human)): 81.5%
- residual activity (GRK5 (human)): 104%
- residual activity (CDK6 CCND1 (human)): 102%
- residual activity (RPS6KA1 KD1 KD2 (human)): 90.5%
- residual activity (SRPK1 (human)): 79.3%
- residual activity (DYRK1B (human)): 79.1%
- residual activity (STK3 (human)): 91.4%
- residual activity (CSNK2A1 (human)): 13.1%
- residual activity (CDK1 CCNB1 (human)): 62.7%
- residual activity (CDK4 CCND3 (human)): 97.9%
- residual activity (ADRBK2 (human)): 94.3%
- residual activity (EPHA7 (human)): 94.1%
- residual activity (DAPK1 (human)): 73.7%
- residual activity (NEK4 (human)): 54.6%
- residual activity (NEK6 (human)): 102%
- residual activity (MAPKAPK5 (human)): 72.6%
- residual activity (MAPK1 (human)): 98.5%
- residual activity (TYRO3 (human)): 93.3%
- residual activity (IKBKB (human)): 95.7%
- residual activity (ACVR1 (human)): 92.1%
- residual activity (DCLK2 (human)): 94.8%
- residual activity (TGFBR1 (human)): 90.8%
- residual activity (CSNK1G1 (human)): 97.2%
- residual activity (PRKCH (human)): 83.7%
- residual activity (SRMS (human)): 89.3%
- residual activity (TXK (human)): 98.7%
- residual activity (FGR (human)): 98.4%

Structure (SMILES): O=C1NC(=O)C(c2c[nH]c3ccccc23)=C1c1c[nH]c2ccccc12
- residual activity (MAPK12 (human)): 93%
- residual activity (CAMK1G (human)): 99.5%
- residual activity (BRSK1 (human)): 84.4%
- residual activity (RPS6KA4 KD2 (human)): 87.4%
- residual activity (CDK9 CCNT1 (human)): 89.9%
- residual activity (SGK2 (human)): 90.5%
- residual activity (AKT3 (human)): 90%
- residual activity (EPHA5 (human)): 95.3%
- residual activity (PDGFRB (human)): 95.6%
- residual activity (BLK (human)): 93.7%
- residual activity (SRPK3 (human)): 90%
- residual activity (RPS6KA6 KD1 KD2 (human)): 19.2%
- residual activity (DYRK4 (human)): 94.3%
- residual activity (NEK1 (human)): 93.8%
- residual activity (ABL1 (human)): 89.1%
- residual activity (GRK5 (human)): 98.1%
- residual activity (CDK6 CCND1 (human)): 88.7%
- residual activity (RPS6KA1 KD1 KD2 (human)): 57.6%
- residual activity (SRPK1 (human)): 89.4%
- residual activity (DYRK1B (human)): 86.8%
- residual activity (STK3 (human)): 64.7%
- residual activity (CSNK2A1 (human)): 106%
- residual activity (CDK1 CCNB1 (human)): 96.5%
- residual activity (CDK4 CCND3 (human)): 89.8%
- residual activity (ADRBK2 (human)): 87%
- residual activity (EPHA7 (human)): 94.3%
- residual activity (DAPK1 (human)): 79.4%
- residual activity (NEK4 (human)): 96.4%
- residual activity (NEK6 (human)): 101%
- residual activity (MAPKAPK5 (human)): 119%
- residual activity (MAPK1 (human)): 90.5%
- residual activity (TYRO3 (human)): 101%
- residual activity (IKBKB (human)): 106%
- residual activity (ACVR1 (human)): 97.1%
- residual activity (DCLK2 (human)): 89.3%
- residual activity (TGFBR1 (human)): 96.6%
- residual activity (PRKCH (human)): 42%
- residual activity (SRMS (human)): 82.4%
- residual activity (TXK (human)): 101%
- residual activity (FGR (human)): 88.5%
